According to ChEMBL document CHEMBL1201862, “PubChem BioAssay data set” (2004):
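Growth conditions: 96-well plates. Treatment: test compound, 48 hours, 5 concentrations. Analysis: linear interpolation between bracketing concentrations; unreached endpoints set to highest concentration. GI50 = concentration required for 50% inhibition of growth.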 Activity calls are given as the source filed them. No stated cut-off is given here; in the data, active = GI50 up to about 1.1 µM and inactive = higher.

Key:
Assay in all cases: DTP human tumour cell line panel, 48 h
[1] = system: UO-31
[2] = system: A498
[3] = system: NCI/ADR-RES
[4] = system: OVCAR-5
[5] = system: HOP-92
[6] = system: OVCAR-3
[7] = system: PC-3
[8] = system: U-251
[9] = system: SNB-75
[10] = system: NCI-H226
[11] = system: NCI-H522
[12] = system: MCF7
[13] = system: MOLT-4
[14] = system: HT-29
[15] = system: CCRF-CEM
[16] = system: CAKI-1
[17] = system: K562
[18] = system: SK-MEL-5
[19] = system: HCT-116
[20] = system: A549

Measured: GI50

N/N=C(\c1nc2ccc([N+](=O)[O-])cc2nc1O)C(O)c1ccc(Cl)c(Cl)c1 (stereo not given)
inactive: [1] 26.7 µM | [2] > 100 µM | [3] > 100 µM | [4] > 100 µM | [5] > 100 µM | [6] > 100 µM | [7] > 100 µM | [8] > 100 µM | [9] > 100 µM | [10] > 100 µM | [11] 13.9 µM | [12] > 100 µM | [13] 22 µM | [14] > 100 µM | [15] 15.8 µM | [16] > 100 µM | [17] 96.6 µM | [18] 61.8 µM | [19] 71.3 µM | [20] > 100 µM

[N-]=[N+]=Nc1ccc2c(c1)Sc1ccccc1N2CCCCCl
inactive: [1] > 100 µM | [2] > 100 µM | [3] > 100 µM | [4] > 100 µM | [5] 32.2 µM | [6] 82.2 µM | [7] 41.3 µM | [8] 23.7 µM | [9] > 100 µM | [10] 48.9 µM | [11] 40.7 µM | [12] 14.9 µM | [13] 22 µM | [14] 20.1 µM | [15] 36.7 µM | [16] > 100 µM | [17] 14 µM | [18] 14.9 µM | [19] 30.2 µM | [20] 35.2 µM

CNC(=O)O/N=C1\N(C)CN(c2ccccc2)C12CCN(CCCC(=O)c1ccc(F)cc1)CC2
active: [9] 1.01 µM
inactive: [1] 90.8 µM | [2] 40 µM | [3] 45.9 µM | [4] 58.2 µM | [5] 35.6 µM | [6] 55.1 µM | [7] > 100 µM | [8] > 100 µM | [10] > 100 µM | [11] 99.8 µM | [12] 47.9 µM | [13] 69 µM | [14] 29.1 µM | [15] 99.3 µM | [16] > 100 µM | [17] 38.5 µM | [18] 18.5 µM | [19] 33 µM | [20] 81.3 µM

COc1ccc(COCCOCc2nc(C#N)c(N)o2)cc1
inactive: [1] > 100 µM | [2] > 100 µM | [3] > 100 µM | [4] > 100 µM | [5] > 100 µM | [6] > 100 µM | [7] > 100 µM | [8] > 100 µM | [9] > 100 µM | [10] > 100 µM | [11] 6.79 µM | [12] > 100 µM | [13] > 100 µM | [14] > 100 µM | [15] 29 µM | [16] 89.9 µM | [17] > 100 µM | [18] > 100 µM | [19] > 100 µM | [20] > 100 µM

COc1cc(C(c2cc3c(cc2O)OCO3)N2CCCCC2)cc(OC)c1OC (stereo not given)
inactive: [1] 14.8 µM | [2] 19.5 µM | [3] 17.5 µM | [4] 17.8 µM | [5] 9.25 µM | [6] 13.8 µM | [7] 15.8 µM | [8] 15.8 µM | [9] 16.8 µM | [10] 16.1 µM | [11] 11.8 µM | [12] 13.6 µM | [13] 2.15 µM | [14] 17 µM | [15] 1.85 µM | [16] 12.1 µM | [17] 2.63 µM | [18] 19.1 µM | [19] 15.4 µM | [20] 20.9 µM

[N-]=[N+]=C(C(=O)OCC#CCOC(=O)C(=[N+]=[N-])S(=O)(=O)c1ccccc1)S(=O)(=O)c1ccccc1
active: [1] 0.2 µM
inactive: [2] > 10 µM | [3] > 10 µM | [4] > 10 µM | [5] > 10 µM | [6] > 10 µM | [7] > 10 µM | [8] > 10 µM | [9] > 10 µM | [10] > 10 µM | [11] > 10 µM | [12] > 10 µM | [13] > 10 µM | [14] > 10 µM | [15] > 10 µM | [16] > 10 µM | [17] > 10 µM | [18] > 10 µM | [19] > 10 µM | [20] > 10 µM

CCCCCCCCCCCCCCCCCCNc1ccn(C2OC(COP(=O)(O)OC3CC(n4cc(F)c(=O)[nH]c4=O)OC3COP(=O)(O)OCC3OC(n4ccc(N)nc4=O)C(O)C3O)C(O)C2O)c(=O)n1 (stereo not given)
inactive: [1] 11.5 µM | [2] 20.8 µM | [3] 14.5 µM | [4] 36.5 µM | [5] > 60.4 µM | [6] 30.5 µM | [7] 7.14 µM | [8] 7.67 µM | [9] 38.6 µM | [10] > 24 µM | [11] 13 µM | [14] 13.7 µM | [16] 4.47 µM | [17] 16.6 µM | [18] 3.62 µM
active: [12] 0.276 µM | [13] 0.611 µM | [15] 0.0206 µM | [19] 1.03 µM | [20] 0.0906 µM

ONCCCn1cnc2c(NC3CC3)ncnc21
inactive: [1] > 100 µM | [2] > 100 µM | [3] > 100 µM | [4] > 100 µM | [5] > 100 µM | [6] > 100 µM | [7] > 100 µM | [8] > 100 µM | [9] > 100 µM | [10] > 100 µM | [11] > 100 µM | [12] > 100 µM | [13] > 100 µM | [14] > 100 µM | [15] > 100 µM | [16] > 100 µM | [17] > 100 µM | [18] > 100 µM | [19] > 100 µM | [20] > 100 µM

C=C1C(=O)OC2/C=C(\CO)CC/C=C(\CO)CC(OC(=O)C(C)C)C12 (stereo not given)
inactive: [1] 14 µM | [2] 21.6 µM | [3] 17.6 µM | [4] 15.9 µM | [5] 1.27 µM | [6] 11.6 µM | [7] 16.6 µM | [8] 18.1 µM | [9] 16.5 µM | [10] 16 µM | [11] 1.56 µM | [12] 2.66 µM | [13] 3.25 µM | [14] 14.6 µM | [15] 2.99 µM | [16] 1.9 µM | [17] 1.71 µM | [18] 19 µM | [19] 7.4 µM | [20] 20.1 µM

C=C1C(=O)CC2C1CC(=O)/C(C)=C/CCC(C)(O)C2O (stereo not given)
active: [7] 0.853 µM | [12] 0.249 µM
inactive: [1] 11.7 µM | [2] 1.19 µM | [3] 8.2 µM | [4] 17.5 µM | [5] 8.67 µM | [6] 7.16 µM | [8] 10.8 µM | [9] 11.8 µM | [10] 30.9 µM | [11] 1.5 µM | [13] 1.57 µM | [14] 14.6 µM | [15] 3.44 µM | [16] 1.55 µM | [17] 2.19 µM | [18] 6.79 µM | [19] 3.86 µM | [20] 27.3 µM

CSc1ccccc1P(CCP(c1ccccc1SC)c1ccccc1SC)c1ccccc1SC
inactive: [1] > 44.4 µM | [2] 40.4 µM | [3] > 93.1 µM | [4] 43.9 µM | [5] 61.1 µM | [8] 4.2 µM | [9] 13 µM | [10] 10.4 µM | [11] 28.1 µM | [12] 1.95 µM | [13] 2.22 µM | [14] 1.28 µM | [16] > 84.5 µM | [17] 1.67 µM | [18] 55.5 µM | [20] 3.96 µM
active: [6] 0.543 µM | [7] 0.912 µM | [15] 0.953 µM | [19] 0.413 µM

COc1ccc(Cc2n[nH]c(Nc3ccc(Br)cc3)nc2=O)cc1OC
inactive: [1] > 76.2 µM | [2] > 100 µM | [3] > 100 µM | [4] > 100 µM | [5] > 100 µM | [6] > 74.3 µM | [7] > 92.5 µM | [8] > 100 µM | [9] 28.9 µM | [10] > 100 µM | [11] 57.7 µM | [12] 44.6 µM | [13] 43.1 µM | [14] > 100 µM | [15] 59.2 µM | [16] > 100 µM | [17] 44.9 µM | [18] > 87.9 µM | [19] 64.3 µM | [20] > 100 µM

CCOc1ccc(-n2c(=O)c3nn4c(=O)n(-c5ccc(OCC)cc5)c(=O)c4nn3c2=O)cc1
inactive: [1] > 100 µM | [2] 18.6 µM | [3] > 100 µM | [4] > 100 µM | [5] 30.9 µM | [6] > 100 µM | [7] > 100 µM | [8] > 100 µM | [9] 20.3 µM | [10] > 100 µM | [11] > 100 µM | [12] > 100 µM | [13] > 100 µM | [14] > 100 µM | [15] > 10 µM | [16] > 100 µM | [17] > 100 µM | [18] > 100 µM | [19] > 100 µM | [20] > 100 µM

O=C(/C=C/c1ccc(O)c(O)c1)Oc1ccccc1
active: [11] 0.304 µM | [13] 0.268 µM | [15] 0.292 µM
inactive: [1] 7.43 µM | [2] 55 µM | [3] 11.2 µM | [4] 28.7 µM | [5] 14.9 µM | [6] 6.98 µM | [7] 17.1 µM | [8] 12.6 µM | [9] 13.1 µM | [10] 35.1 µM | [12] 12.2 µM | [14] 11.3 µM | [16] 5.85 µM | [17] 4.27 µM | [18] 9.95 µM | [19] 9.71 µM | [20] 15.3 µM
